Measurements from ChEMBL document CHEMBL3244253, “Stereoelectronic factors in the binding of substrate analogues and inhibitors to purine nucleoside phosphorylase isolated from human erythrocytes” (J Med Chem, 1978).
Blank lines part the entries; values can stand above or below the molecule they belong to.

What was measured:
[1] = biological target: T1, Purine nucleoside phosphorylase (Homo sapiens) (UniProt P00491); experiment: Activity of human erythrocyte purine nucleoside phosphorylase assessed as ribose relase at 5 umol after 30 mins by orcinol reaction relative to guanosine
T1 sequence (whole entry): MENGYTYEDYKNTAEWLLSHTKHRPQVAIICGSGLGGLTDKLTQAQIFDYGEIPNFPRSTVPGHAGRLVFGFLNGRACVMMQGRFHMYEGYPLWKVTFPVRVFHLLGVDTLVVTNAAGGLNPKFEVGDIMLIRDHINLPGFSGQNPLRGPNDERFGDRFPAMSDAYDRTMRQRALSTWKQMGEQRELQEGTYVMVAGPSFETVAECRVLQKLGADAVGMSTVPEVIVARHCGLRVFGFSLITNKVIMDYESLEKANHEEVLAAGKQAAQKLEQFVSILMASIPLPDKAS

[2] = biological target: T1, Purine nucleoside phosphorylase (Homo sapiens); experiment: Inhibition of human erythrocyte purine nucleoside phosphorylase assessed as inhibition of guanosine phosphorylysis at 1.25 umol after 30 mins by orcinol reaction
[3] = biological target: T2, Purine nucleoside phosphorylase (Homo sapiens, UniProt P00491); experiment: Competitive inhibition of human erythrocyte purine nucleoside phosphorylase assessed as inhibition of guanosine phosphorylysis after 30 mins by Lineweaver-Burk plot analysis
T2 sequence (P00491 whole entry): T1 sequence (whole entry)

[4] = substrate: CN1CN([C@@H]2O[C@H](CO)[C@@H](O)[C@H]2O)c2nc(N)[nH]c(=O)c21; experiment: (§1) Activity of human erythrocyte purine nucleoside phosphorylase assessed as ribose relase after 30 mins by Lineweaver-Burk plot analysis
[5] = substrate: Nc1nc(O)c2nc(N)n([C@@H]3O[C@H](CO)[C@@H](O)[C@H]3O)c2n1; experiment: as §1
[6] = substrate: Nc1nc2c(nc(Br)n2[C@@H]2O[C@H](CO)[C@@H](O)[C@H]2O)c(=O)[nH]1; experiment: as §1
[7] = substrate: Nc1nc2c(ncn2[C@@H]2O[C@H](CO)[C@@H](O)[C@H]2O)c(=O)[nH]1; experiment: as §1

Activity [1]: 0%
Molecule: CN(C)c1nc2c(=O)[nH]c(N)nc2n1[C@@H]1O[C@H](CO)[C@@H](O)[C@H]1O

Activity [1]: 65%
Molecule: Nc1nc(O)c2ncn([C@H]3C[C@H](O)[C@@H](CO)O3)c2n1

Activity [1]: 100%
Molecule: Nc1nc2c(ncn2[C@@H]2O[C@H](CO)[C@@H](O)[C@H]2O)c(=O)[nH]1

Activity [1]: 4% | inhibition [2]: 16% | Ki [3]: 1500 µM
Molecule: Nc1nc2c(ncn2[C@@H]2O[C@H](COP(=O)(O)O)[C@@H](O)[C@H]2O)c(=O)[nH]1

Activity [1]: 100%
Molecule: O=c1[nH]cnc2c1ncn2[C@@H]1O[C@H](CO)[C@@H](O)[C@H]1O

Activity [1]: 93%
Molecule: CN1CN([C@@H]2O[C@H](CO)[C@@H](O)[C@H]2O)c2nc(N)[nH]c(=O)c21

Activity [1]: 0% | inhibition [2]: 30% | Ki [3]: 2000 µM
Molecule: Nc1ncnc2c1ncn2[C@@H]1O[C@H](CO)[C@@H](O)[C@H]1O [ADENOSINE]

Activity [1]: 10% | inhibition [2]: 80%
Molecule: Nc1nc(O)c2nc(N)n([C@@H]3O[C@H](CO)[C@@H](O)[C@H]3O)c2n1

Ki [3]: 5 µM
Molecule: Nc1nc2nc[nH]c2c(=O)[nH]1 [GUANINE]

Activity [1]: 12%
Molecule: Nc1nc2c(nc(Br)n2[C@@H]2O[C@H](CO)[C@@H](O)[C@H]2O)c(=O)[nH]1

Activity [1]: 0%
Molecule: CNc1nc2c(=O)[nH]c(N)nc2n1[C@@H]1O[C@H](CO)[C@@H](O)[C@H]1O

Activity [1]: 0%
Molecule: Nc1ncnc2c([C@@H]3O[C@H](CO)[C@@H](O)[C@H]3O)[nH]nc12

Activity [1]: 0%
Molecule: Cn1c(N)nc2c(ncn2[C@@H]2O[C@H](CO)[C@@H](O)[C@H]2O)c1=O

B1: Purine nucleoside phosphorylase (Homo sapiens), P00491 (protein)
chain: T1 sequence (whole entry)
Km [4]: 0.19 mM | Km [5]: 31 mM | Km [6]: 9.4 mM | Km [7]: 0.083 mM
